The results in this text go back to patent US20050287068A1, “Efficacy of active immunotherapy by integrating diagnostic with therapeutic methods” (priority 2004, published 2005).

In this assay the test system is PRAME 425-433. The assay is described as follows: IFN-gamma ELISA on splenocytes restimulated with native peptide after intra-lymph-node immunization. To be noted: different concentrations of plasmid or peptide (peptide together with dsRNA), inguinal lymph nodes, days 0, 3, 14 and 18; spleens 10 days after immunization; FIG. 4 in pg IFN-gamma/ml. It is filed as in vivo, HHD transgenic mice. The source says:
HHD transgenic mice (n=4/group) were immunized with a PRAME 425-433 expressing plasmid (as described in U.S. Provisional Application No. __/______ (Atty Docket No. MANNK.053PR), entitled METHODS AND COMPOSITIONS TO ELICIT MULTIVALENT IMMUNE RESPONSES AGAINST DOMINANT AND SUBDOMINANT EPITOPES, EXPRESSED ON CANCER CELLS AND TUMOR STROMA, filed on date even with this disclosure, which is hereby incorporated by reference in its entirety) or peptide together with dsRNA (different concentrations of plasmid or peptide, by direct inoculation into the inguinal lymph nodes with 25 μl of plasmid or peptide in PBS/lymph node, on days 0, 3, 14 and 18. Spleens were harvested at 10 days after completion of immunization, splenocytes were incubated over 48 hours with native peptide (10 μg/ml), supernatants harvested and IFN-gamma concentration measured by ELISA.
For orientation: In an ELISA, binding on a coated surface is turned into a signal by an enzyme label.

As for “PRAME 425-433 peptide: PRAME 425-433 peptide given together with dsRNA into inguinal lymph nodes (SLLQHLIGL; UniProt P78395 425-433, looked up, fragment)”, the “magnitude of the immune response (IFN-gamma concentration measured by ELISA)” value is reported as “the larger the dose of peptide, the lower the immune response”.
